Data from patent US7846903B2, “Type II cubic liquid crystal composition” (National Institute of Advanced Industrial Science and …, priority 2004, dated 2010).

Experiments:
[1] = literature; cited from earlier work
[2] = Krafft temperature (TK) by DSC of amphiphilic compound/water system; assay type: physicochemical; conditions: for TK (Krafft temperature): compound/water system
Procedure: Liquid crystals such as cubic liquid crystals formed by amphiphilic lipids are formed only at the Krafft temperature (TK), as determined depending on types and concentrations of amphiphilic lipids, or higher. Furthermore, liquid crystals generally undergo a phase transition upon changes in the concentration of the amphiphilic lipid or temperature. Accordingly, the maximal temperature (Tmax) at which a given liquid crystal structure can be stably present is also determined depending on lipid type and concentration of amphiphilic lipid. Thus, a liquid crystal structure formed by a given type of amphiphilic lipid is stably formed in the temperature range between TK and Tmax. The correlation between TK-Tmax and the concentration of the amphiphilic lipid is generally indicated as a “concentration-temperature dependent phase diagram” of the amphiphilic lipid/water system. The Krafft temperature of the amphiphilic lipid can be determined by a method known in the art, such as a method involving the preparation of such a phase diagram (e.g., Laughlin, R. G., “The Aqueous Phase Behavior of Surfactants,” 1994, Academic Press London, pp. 106-117). The Krafft temperature of a mixture of two or more amphiphilic lipids can be determined by the same method.
In the cubic liquid crystal composition of the present invention, stable bicontinuous type II cubic liquid crystals are formed at low temperatures, such as lower than 6° C. In the liquid crystal composition of the present invention, stable bicontinuous type II cubic liquid crystals are typically formed between −10° C. (or at the freezing temperature of the aqueous medium used or higher) and 80° C., and preferably between 0° C. and 50° C. The Krafft temperature of the amphiphilic lipid can be easily determined by, for example, DSC assay of an aqueous solution containing 1% to 85% by mass of amphiphilic lipid or by observing the melting behavior of the amphiphilic lipid under a (polarizing) microscope. More precisely, such temperature may be determined in accordance with a conventional technique involving the preparation of a phase diagram (e.g., Laughlin, R. G., “The Aqueous Phase Behavior of Surfactants,” 1994, Academic Press, London, pp. 106-117).
The Krafft temperatures of these amphiphilic compounds and mixtures thereof determined by the analyses described below are shown in Table 2-1 and Table 2-2.
Subsequently, the sample of mono-O-(phytanyl)pentaerythritol/water system was subjected to differential scanning calorimetry (DSC) in a temperature range between −45° C. and 70° C. DSC analysis employed the Seiko SSC/560U differential scanning calorimeter (Seiko Instruments Inc.). The sample of mono-O-(phytanyl)pentaerythritol/water system (72.4% by mass) prepared by the above method was sealed in a DSC cell, and the sample was incubated while cooling at −45° C. for 3 hours to thoroughly form a hydrated solid of mono-O-(phytanyl)pentaerythritol (hereafter abbreviated as “hydrated solid”). Subsequently, this hydrated solid was heated at a rate of temperature increase of 0.5° C./minute and a melting behavior of the hydrated solid was inspected by DSC analysis. As a result, an endothermic peak resulting from melting of the hydrated solid that begins at around −40° C. and ends at around −27° C. and an endothermic peak resulting from ice melting observed between −10° C. and 1° C. were observed, as shown in FIG. 4. In FIG. 4, the left peak is the endothermic peak resulting from melting of the hydrated solid and the right peak is the endothermic peak resulting from ice melting. Although analysis was conducted up to 70° C., other thermal transition was not observed. Substantially the same results were obtained at other concentrations. Thus, the TK of mono-O-(phytanyl)pentaerythritol was concluded to be 0° C. or lower.

[3] = Formation and structure of cubic liquid crystals by polarizing microscopy (penetration method) and SAXS; assay type: physicochemical; conditions: for lattice constant: Pn3m, 52.3% by mass
Text: Whether or not the amphiphilic lipid/water system forms cubic liquid crystals and whether or not such composition is type I or II can be easily determined by the penetration method. A small amount (several mg) of amphiphilic lipids is placed on a glass slide for a microscope, and slight pressure is applied with a glass cover to form a thin layer of amphiphilic lipids (diameter: about 1 to 5 mm) with a thickness of about 10 μm in the gap between the glass slide and the glass cover. Upon addition of water or an aqueous medium from a side of the gap between the glass slide and the glass cover by capillary action, water gradually invades the amphiphilic lipid thin layer from the exterior edge, and a water content gradient is formed from the amphiphilic lipid thin layer/water interface toward the inside of the amphiphilic lipid thin layer. Polarizing microscopic observation thereof enables the determination of a phase type formed depending on the concentration of the amphiphilic lipid/water system. […] In FIG. 2, 4 regions are observed. The rightmost region in the photograph indicates a water region, and the other regions indicate hydrous amphiphilic lipid regions. In the photograph, the rightmost regions indicates the highest water content and the leftmost region indicates a region of amphiphilic lipids that has not yet been penetrated by water. […] Since cubic liquid crystals are stably formed at the interface of excess water and the amphiphilic lipid portion, such crystals are found to be of type II.
To this end, whether or not the liquid crystal structure has cubic lattices may be investigated by the small-angle x-ray scattering (SAXS) assay. In this process, a sample of an amphiphilic lipid/water system at a given concentration may be introduced into a quartz X-ray capillary tube, the capillary may be sealed with an oxygen burner, and the resultant may be subjected to the SAXS assay.
The cubic liquid crystal composition of the present invention is not particularly limited. […] Thus, spaces and lattice constants can be easily determined. The peak values of small angle X-ray scattering or the cubic lattice size of cubic liquid crystals in the presence of an excess aqueous solvent are at constant levels regardless of the lipid concentration. The coexistence state of cubic liquid crystals and an excess aqueous medium can be confirmed by the SAXS assay. Thus, whether or not the cubic liquid crystals are of type II can be easily determined.
In equations, nL and nW are actually measurable, and ac can be measured by the SAXS experiment. Thus, the dhc value can be determined based on equations (ii) and (iii). […] Based on such comparison, whether or not the cubic liquid crystal structure is of a bicontinuous type can be determined.
Mono-O-(3,7,11,15-tetramethylhexadecyl)pentaerythritol (hereafter referred to as “mono-O-(phytanyl)pentaerythritol,” formula (5) above) and pure water were introduced into a mixing device, and incubation was carried out while performing 100 or more times of mixing operations at room temperature (23° C.) over the period of 48 hours. Thus, a homogeneously mixed sample of mono-O-(phytanyl)pentaerythritol/water system was obtained. This sample of mono-O-(phytanyl)pentaerythritol/water system appeared to be a transparent gel composition.
Subsequently, the thus obtained sample of mono-O-(phytanyl)pentaerythritol/water system (the concentration of the amphiphilic compound: 74.6% by mass) was observed by polarizing microscopy. In entire region of the lipid portions, optically isotropic textures peculiar to the cubic liquid crystals were observed (FIG. 3). In FIG. 3, the right region indicates water and the left region indicates the sample of mono-O-(phytanyl)pentaerythritol/water system. […] Such observation indicates the formation of cubic liquid crystals.
Subsequently, the sample of mono-O-(phytanyl)pentaerythritol/water system was confirmed to be a cubic liquid crystal by small-angle x-ray scattering (SAXS). […]

[4] = lipid alone, total amphiphilic compound content 60% by mass (excess water)

In the case of CCCC/C=C\CCCCCCCC(=O)OCC(O)CO (stereo not shown) [monomyristolein], the Krafft temperature [1] is given as 35 °C.

For monopentadecenoin, the Krafft temperature [1] is listed as 30 °C.

In the case of CCCCCCCCCCCCCCCCCC(=O)OCC(O)CO (stereo not shown) [monooctadecanoin], the Krafft temperature [1] is listed as 80 °C.

For CCCCCC/C=C\CCCCCCCCCC(=O)OC[C@H](O)CO [monovaccenin], the Krafft temperature [1] is listed as 15 °C.

In the case of CC(C)CCCC(C)CCCC(C)CCCC(C)CCOC1OC[C@@H](O)C(O)C1O (stereo partly shown) [formula (13), reference compound], the “TK (Krafft temperature)” value ([2]; listed as β-XP) is given as “about 10 °C”, the Krafft temperature [1] is given as 10 °C and the “maximal temperature at which the cubic liquid crystal structure is formed” value [3] is given as 75 °C. For the same molecule, the “diameter of the water channel of the cubic liquid crystals” value [3, 4] was 3.8 nm and the “lattice constant of the cubic liquid crystals” value [3, 4] was 9.2 nm.

In the case of CC(C)CCCC(C)CCCC(C)CCCC(C)(O)C(O)CO (stereo not shown) [phytantriol, 3,7,11,15-tetramethylhexadecyl-1,2,3-triol], the “Temperature at which cubic liquid crystals are transformed into inverted hexagonal liquid crystals” value [1] is listed as at least 40 °C.

For CCCCCCCC/C=C\CCCCCCCC(=O)OCC(O)CO (stereo not shown) [monoolein], the Krafft temperature [1] is listed as 15 °C.

In the case of CC(C)CCCC(C)CCCC(C)CCCC(C)CC(=O)OCC(O)C(O)CO (stereo not shown) [formula (4), 1-O-(3,7,11,15-tetramethylhexadecanoyl)erythritol], the “Krafft temperature (° C.)” value ([2]; amphiphilic compound alone) is reported as 0 °C or lower, the “TK (Krafft temperature)” value [2] is reported as at most 0 °C and the lattice constant ([3]; 1° C.) is reported as 11.4 nm. The lattice constant ([3]; 25° C.) was 11.3 nm and the lattice constant ([3]; 45° C.) was 10.1 nm.
